Where two headings read alike, the source gives them in different places.
Key:
[1] = tested on: patients with idiopathic pulmonary fibrosis (IPF); conditions: Phase II, cited from earlier work
PDE4B subunit = PDE4B subunit (Homo sapiens, UniProt Q07343); conditions: cited from earlier work
[2] = Form conversion from crystalline Form A to Form B followed by Raman spectroscopy; format: physicochemical; conditions: 40° C., n-propanol/water, seeding with Form B
Description: Form A was charged to the reactor as the starting material. 7.0 VP of n-propanol and […] were used along with Raman probe to confirm the rate of conversion by holding the conversion at different temperature. The rate of form conversion from crystalline Form A to crystalline Form B of the PDE4B-inhibitor of formula XX was studied at 20, 40 and 70° C. with 10% seeding with crystalline Form B seeding crystals.
At 20 or 70° C., the conversion rate was similar, but definitely slower than at 40° C.
The temperature of 40° C. allows a full conversion of crystalline Form A into crystalline Form B in less than 4 hours, preferably even in 2 hours (see also FIGS. 1a and 1b). […] However, the crystallization procedure to yield the Compound of formula XX as crystalline Form B (on production scale) as described in Chapter 3.10 reduces the crystallization time down to not more than 9 hours from the timepoint of seeding, which means a significant improvement in the cycling time.

[3] = Competitive slurries containing Form A, Form B and Form C (thermodynamic stability); format: physicochemical
Description: Few other crystalline forms were observed during the initial and extended solid form screening by using various techniques. […] Its thermodynamic stability has been confirmed by competitive slurries containing Form A, Form B and Form C. Form B was the predominant form in all solvents and temperature conditions, except for the solvent water (with a water activity of 1) at temperatures between 5 and 25° C. which yielded Form C.

[4] = Storage stability of intermediates at room temperature; format: physicochemical
Source text: The alternative synthesis method to manufacture Intermediate VIII has several advantages over the method of manufacturing Intermediate VIII (or Intermediate G as it is called in U.S. Pat. No. […]): • The new Suzuki-reaction process offers much better control of impurities by avoiding the formation of N-methylation at the piperidine ring. The methylation of the piperidine-ring occurs in the original process according to U.S. Pat. No. 8,609,670 during the use of methanol and 4M hydrochloric acid in 1,4-dioxane and takes place via the in situ formed cancerogenic compound methyl chloride. […] 0.05 m % (0.02 mol %) Pd(amphos)2Cl2 is sufficient for the Suzuki cross-coupling reaction to complete the conversion in less than 3 hours. In literature, significant higher amounts of Pd-catalyst have been described so far [a) K.-T.-Wong et al, Org. […] Second, the reproducibility of yield and quality is very high and consistent as observed on production scale over several batches. […]

[5] = Stress test-experiments of the hydrolysis reactions of Intermediate XVII; format: physicochemical
Description: (§1) It is shown, that hydrolysis toward IMP-A occurs at 60° C. and 90° C. (examples 1 and 2). The hydrolysis reaction itself is promoted by titanium residues, as example 2 with 671 mg/kg titanium leads to higher impurity levels of IMP-A compared to example 1, which has a lower titanium content (<251 mg/kg).
as §1, with “mg/kg titanium content leads to” for “mg/kg titanium leads to”

[6] = Long-term stability of water-free material regarding hydrolysis side-reactions; format: physicochemical; conditions: water-free form (recrystallization variant A, 1,4-dioxane)
Source text: For example with the additional recrystallization step according to variant A (recrystallization from 1,4-dioxane) Intermediate XVIII is obtained as a water-free form (examples 1 and 2). The water-free material is long-term stable (>12 months) regarding hydrolysis side-reactions, which can occur at two positions of Intermediate XVII by forming IMP-A and IMP-B (see Scheme 5).
In comparison to the process as described in U.S. Pat. No. 8,609,670B, the additional recrystallization step after the enantioselective oxidation step according to variant A yielding Intermediate XVIII also improves the quality of the sulfoxide XVII critically. Hereby, Intermediate XVIII is obtained as a water-free form. The water-free material is long-term stable (>12 months) regarding hydrolysis side-reactions, which can occur at two positions of Intermediate XVII by forming the impurities IMP-A and IMP-B (see Scheme 14).

[7] = batch Example 1, Ti content <251 mg/kg
[8] = batch Example 2, Ti content 671 mg/kg

PDE4B subunit, sequence (Q07343 whole entry): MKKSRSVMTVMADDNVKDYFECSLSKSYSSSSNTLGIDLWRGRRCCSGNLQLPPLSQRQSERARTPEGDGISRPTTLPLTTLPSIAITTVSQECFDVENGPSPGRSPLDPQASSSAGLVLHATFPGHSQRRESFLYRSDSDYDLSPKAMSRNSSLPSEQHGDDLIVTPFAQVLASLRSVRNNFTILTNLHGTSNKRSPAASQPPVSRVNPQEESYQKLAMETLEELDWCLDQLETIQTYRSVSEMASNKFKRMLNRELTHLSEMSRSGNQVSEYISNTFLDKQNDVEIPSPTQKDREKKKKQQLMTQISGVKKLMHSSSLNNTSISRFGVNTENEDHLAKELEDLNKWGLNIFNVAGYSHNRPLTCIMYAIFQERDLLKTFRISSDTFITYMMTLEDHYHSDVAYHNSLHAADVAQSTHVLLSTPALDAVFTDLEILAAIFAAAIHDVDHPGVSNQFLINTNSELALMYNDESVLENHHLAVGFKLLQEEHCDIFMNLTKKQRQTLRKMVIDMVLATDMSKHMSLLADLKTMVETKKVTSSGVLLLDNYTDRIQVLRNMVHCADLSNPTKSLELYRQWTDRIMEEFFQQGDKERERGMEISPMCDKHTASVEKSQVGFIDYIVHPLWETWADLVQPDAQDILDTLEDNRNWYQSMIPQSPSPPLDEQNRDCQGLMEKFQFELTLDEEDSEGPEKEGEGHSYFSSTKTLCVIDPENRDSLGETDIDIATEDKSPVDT

## [O-][S@+]1CCc2nc(N3CCC(c4ncc(Cl)cn4)CC3)nc(NC3(CO)CCC3)c21 [Compound XX, 1-({(5R)-2-[4-(5-CHLOROPYRIMIDINE-2-YL)PIPERIDINE-1-YL]-5-OXIDO-6,7-DIHYDROTHIENO[3,2-D]PYRIMIDINE-4-YL}AMINO)CYCLOBUTYL]METHANOL]
[1]; IPF patients already taking approved antifibrotics (Nintedanib or Pirfenidon) as background
  lung function decline: reduction in lung function decline could be observed
[1]; IPF patients not on approved antifibrotics as background treatment
  lung function decline: reduction in lung function decline could be observed
[1]; IPF patients, within 12 weeks of treatment
  rate of lung function decline: reduction in the rate of lung function decline
PDE4B subunit
  PDE4 subunit preference: preferentially inhibits the PDE4B subunit

## [O-][S@+]1CCc2nc(N3CCC(c4ncc(Cl)cn4)CC3)nc(NC3(CO)CCC3)c21 [Form A]
[2]
  time for full conversion of crystalline Form A into crystalline Form B: less than 4 hours

## [O-][S@+]1CCc2nc(N3CCC(c4ncc(Cl)cn4)CC3)nc(NC3(CO)CCC3)c21 [Form B]
[3]
  thermodynamic stability of crystalline form: thermodynamically most stable form

## CC(C)(C)OC(=O)N1CC=C(c2ncc(Cl)cn2)CC1 [Intermediate VI]
[4]
  storage stability: stable for storage at room temperature

## [O-][S@+]1CCc2nc(Cl)nc(NC3(CO)CCC3)c21 [Intermediate XVII, 1-[[(5R)-2-chloro-6,7-dihydro-5-oxidothieno[3,2-d]pyrimidin-4-yl]amino]-cyclobutanemethanol]
[5]; [7]
  IMP-A content in XVII after 1 week at 60° C.: 0.13%
  IMP-A content in XVII after 1 week at 90° C.: 0.16%
  IMP-A content in XVII at t = 0: 0.10%
  IMP-B content in XVII after 1 week at 60° C.: 0.05%
  IMP-B content in XVII after 1 week at 90° C.: 0.34%
  IMP-B content in XVII at t = 0: <0.05%
[5]; [8]
  IMP-A content in XVII after 1 week at 60° C.: 0.19%
  IMP-A content in XVII after 1 week at 90° C.: 0.32%
  IMP-A content in XVII at t = 0: <0.05%
  IMP-B content in XVII after 1 week at 60° C.: <0.05%
  IMP-B content in XVII after 1 week at 90° C.: 0.54%
  IMP-B content in XVII at t = 0: <0.05%

## [O-][S@+]1CCc2nc(Cl)nc(NC3(CO)CCC3)c21 [Intermediate XVIII]
[6]
  long-term stability regarding hydrolysis side-reactions: > 12 months

Reference: patent US20250270230A1, “NOVEL SYNTHETIC STEPS FOR THE MANUFACTURING METHOD OF THE PDE4B-INHIBITOR 1-({(5R)-2-[4-(5-CHLOROPYRIMIDINE-2-YL)PIPERIDINE-1-YL]-5-OXIDO-6,7-DIHYDROTHIENO[3,2-D]PYRIMIDINE-4-YL}AMINO)CYCLOBUTYL]METHANOL” (Boehringer Ingelheim International GmbH, priority 2023, published 2025)
